# Source: paper PMC4601567 (Steroids, 2014)
# Biological target: T1, full-length recombinant rat vitamin D receptor (VDR) (Rattus norvegicus, UniProt P13053)
# T1 sequence (P13053 1-423): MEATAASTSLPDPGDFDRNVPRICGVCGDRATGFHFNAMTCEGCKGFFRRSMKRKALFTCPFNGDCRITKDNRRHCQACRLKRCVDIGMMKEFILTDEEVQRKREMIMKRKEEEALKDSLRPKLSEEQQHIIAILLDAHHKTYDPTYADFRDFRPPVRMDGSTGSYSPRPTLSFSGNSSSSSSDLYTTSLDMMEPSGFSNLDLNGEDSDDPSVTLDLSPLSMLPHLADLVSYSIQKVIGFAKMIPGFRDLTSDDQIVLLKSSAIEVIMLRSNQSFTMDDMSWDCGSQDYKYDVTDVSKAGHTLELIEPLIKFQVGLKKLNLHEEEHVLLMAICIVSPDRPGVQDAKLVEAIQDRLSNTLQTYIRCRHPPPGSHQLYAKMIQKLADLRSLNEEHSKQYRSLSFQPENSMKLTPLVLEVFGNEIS
# Assay: competitive radioligand displacement
# Assay type: binding
row,SMILES,Ki
1,"C=C1[C@H](O)CC(=C/C=C2\CCC[C@]3(C)[C@@H]([C@H](C)/C=C/C[C@@H](C)O)CC[C@@H]23)C[C@H]1O [8a, (20R,25R)-2-Methylene-19,26-dinor-22-(E)-ene-1α,25-dihydroxyvitamin D3]",0.09 nM
2,"C=C1[C@H](O)CC(=C/C=C2\CCC[C@]3(C)[C@@H]([C@H](C)/C=C/C[C@H](C)O)CC[C@@H]23)C[C@H]1O [8b, (20R,25S)-2-Methylene-19,26-dinor-22-(E)-ene-1α,25-dihydroxyvitamin D3]",0.3 nM
3,"C=C1[C@H](O)CC(=C/C=C2\CCC[C@]3(C)[C@@H]([C@@H](C)/C=C/C[C@H](C)O)CC[C@@H]23)C[C@H]1O [9b, (20S,25S)-2-Methylene-19,26-dinor-22-(E)-ene-1α,25-dihydroxyvitamin D3]",0.2 nM
4,"C[C@H](/C=C/[C@H](C)C(C)(C)O)[C@H]1CC[C@H]2/C(=C/C=C3C[C@@H](O)C[C@H](O)C3)CCC[C@]12C [compound 2, 19-Nor-1α,25-dihydroxyvitaminD2 (Zemplar)]",0.1 nM

# These reach a lower Ki. Values come first.
row,Ki,SMILES
1,0.08 nM,"C=C1[C@H](O)CC(=C/C=C2\CCC[C@]3(C)[C@@H]([C@@H](C)/C=C/C[C@@H](C)O)CC[C@@H]23)C[C@H]1O [9a, (20S,25R)-2-Methylene-19,26-dinor-22-(E)-ene-1α,25-dihydroxyvitamin D3]"
2,0.06 nM,"C=C1[C@H](O)CC(=C/C=C2\CCC[C@]3(C)[C@@H]([C@H](C)/C=C/CC(C)(C)O)CC[C@@H]23)C[C@H]1O [compound 6, 2-Methylene-19-nor-22(E)-ene-1α,25-dihydroxyvitamin D3]"
